{"source": "patent US20240132463A1", "about": "“SUBSTITUTED N-(2-(2,6-DIOXOPIPERIDIN-3-YL)-1,3-DIOXOISOINDOLIN-5-YL)ARYLSULFONAMIDE ANALOGS AS MODULATORS OF CEREBLON PROTEIN” (ST. JUDE CHILDREN'S RESEARCH HOSPITAL, INC., priority 2020, published 2024)", "key": {"MDCKII-MDR1 cells": {"system": "MDCKII-MDR1 cells", "experiment": "MDCKII-MDR1 permeability assay", "type": "in vitro ADME", "conditions": "permeability in MDCK-MDR1 cells", "experimental": "High throughput […]1 permeability was performed in the Transwell® 0.4 μm polycarbonate membrane 96-well system with modified methods (Refs. 38-39). […]1 cells were maintained at 37° C. in a humidified incubator with an atmosphere of 5% CO2. The cells were cultured in 75 cm^2 flasks with Dulbecco's Modified Eagle's Medium (DMEM) containing 10% fetal bovine serum (FBS), 1% non-essential amino acids (NEAA), 100 units/ml of penicillin, and 100 μg/ml of streptomycin. The […]1 cells were seeded onto inserts at a density of 2×10^4 and 1×10^4 cells/insert separately. The medium in the wells was exchanged each other day, and the trans epithelial electrical resistance (TEER) value was measured using an epithelial volt-ohm meter (Millipore, Billerica, Massachusetts). […] For transport experiments, each cultured monolayer on the 96-well plate was washed twice with a transport buffer (HBSS/25 mM HEPES, pH 7.4). The permeability assay was initiated by the addition of each compound solution (10 μmol/L) into inserts (apical side, A) or receivers (basolateral side, B). The MDCKII-MDR1 cell monolayers were incubated for 1 hour at 37° C. Fractions were collected from receivers (if apical to basal permeability) or inserts (if basal to apical permeability), and concentrations were assessed by UPLC/MS (Waters; Milford, MA). All compounds were tested in triplicates. The A→B (or B→A) apparent permeability coefficients (Papp) of each compound were calculated using the equation, Papp=dQ/dt×1/AC0, where dQ/dt equals the flux of a drug across the monolayer, A equals the total insert well surface area, and C0 is the initial concentration of substrate in the donor compartment. The efflux ratio was determined by dividing the Papp in the B-A direction by the Papp in the A-B direction."}, "[1]": {"system": "CRBN knockout MV4-11 cells", "experiment": "Cell viability in CRBN knockout MV4-11 cells", "type": "cell-based, human", "conditions": "CRBN knockout vs wild-type MV4-11 cells"}, "MV4-11 cells [2]": {"system": "MV4-11 cells", "experiment": "Lenalidomide competition assay", "type": "cell-based, human", "conditions": "co-treatment with lenalidomide 10 μM, 72 h"}, "Aqueous solubility assay": {"experiment": "Aqueous solubility assay", "type": "physicochemical", "conditions": "aqueous solubility at pH = 7.4, triplicate", "experimental": "Solubility assays were carried out on a Biomek FX lab automation workstation (Beckman Coulter, Inc., Fullerton, CA) using μSOL Evolution software (pION Inc., Woburn, MA). 10 μL of 10 mM compound stock (in DMSO) was added to 190 μL 1-propanol to make a reference stock plate. 5 μL from this reference stock plate were mixed with 70 μL 1-propanol and 75 μL citrate phosphate-buffered saline (PBS;isotonic) to make the reference plate, and the UV spectrum (250-500 nm) of the reference plate was read. 6 μL of 10 mM test compound stock was added to 594 μL buffer in a 96-well storage plate and mixed. The storage plate was sealed and incubated at RT for 18 h. The suspension was then filtered through a 96-well filter plate (pION Inc., Woburn, MA). 75 μL of filtrate was mixed with 75 μL 1-propanol to make the sample plate, and the UV spectrum of the sample plate was read. Calculations were carried out with μSOL Evolution software based on the area under the curve (AUC) of the UV spectrum of the sample and reference plates. All compounds were tested in triplicate."}, "GSPT1": {"target": "GSPT1 (Homo sapiens (Human), UniProt P15170+Q96SW2)", "sequence (P15170 whole entry)": "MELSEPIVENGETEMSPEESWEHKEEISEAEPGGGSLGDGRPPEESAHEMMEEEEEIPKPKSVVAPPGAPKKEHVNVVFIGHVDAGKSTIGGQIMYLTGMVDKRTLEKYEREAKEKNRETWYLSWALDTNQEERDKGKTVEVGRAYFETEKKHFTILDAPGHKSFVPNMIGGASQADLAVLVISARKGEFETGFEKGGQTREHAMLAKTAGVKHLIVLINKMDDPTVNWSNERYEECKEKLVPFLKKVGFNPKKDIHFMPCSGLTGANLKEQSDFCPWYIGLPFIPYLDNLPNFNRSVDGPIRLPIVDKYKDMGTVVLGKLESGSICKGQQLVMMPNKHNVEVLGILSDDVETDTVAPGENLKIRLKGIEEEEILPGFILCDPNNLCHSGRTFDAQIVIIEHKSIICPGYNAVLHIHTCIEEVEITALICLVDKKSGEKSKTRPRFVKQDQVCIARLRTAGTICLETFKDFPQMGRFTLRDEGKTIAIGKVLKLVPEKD", "sequence (Q96SW2 whole entry)": "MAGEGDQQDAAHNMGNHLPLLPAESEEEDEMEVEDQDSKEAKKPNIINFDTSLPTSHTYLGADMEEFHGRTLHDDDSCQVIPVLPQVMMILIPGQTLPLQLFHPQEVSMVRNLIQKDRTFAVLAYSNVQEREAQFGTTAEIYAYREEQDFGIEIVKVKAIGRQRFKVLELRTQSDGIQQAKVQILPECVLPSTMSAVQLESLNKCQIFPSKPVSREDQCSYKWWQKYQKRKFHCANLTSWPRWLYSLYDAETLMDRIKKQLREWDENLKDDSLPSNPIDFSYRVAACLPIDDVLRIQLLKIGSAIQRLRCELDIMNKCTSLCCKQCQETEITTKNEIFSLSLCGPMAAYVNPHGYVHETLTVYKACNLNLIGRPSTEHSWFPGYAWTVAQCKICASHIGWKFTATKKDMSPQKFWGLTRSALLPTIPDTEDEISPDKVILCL", "sequence (Q16531 whole entry partner)": "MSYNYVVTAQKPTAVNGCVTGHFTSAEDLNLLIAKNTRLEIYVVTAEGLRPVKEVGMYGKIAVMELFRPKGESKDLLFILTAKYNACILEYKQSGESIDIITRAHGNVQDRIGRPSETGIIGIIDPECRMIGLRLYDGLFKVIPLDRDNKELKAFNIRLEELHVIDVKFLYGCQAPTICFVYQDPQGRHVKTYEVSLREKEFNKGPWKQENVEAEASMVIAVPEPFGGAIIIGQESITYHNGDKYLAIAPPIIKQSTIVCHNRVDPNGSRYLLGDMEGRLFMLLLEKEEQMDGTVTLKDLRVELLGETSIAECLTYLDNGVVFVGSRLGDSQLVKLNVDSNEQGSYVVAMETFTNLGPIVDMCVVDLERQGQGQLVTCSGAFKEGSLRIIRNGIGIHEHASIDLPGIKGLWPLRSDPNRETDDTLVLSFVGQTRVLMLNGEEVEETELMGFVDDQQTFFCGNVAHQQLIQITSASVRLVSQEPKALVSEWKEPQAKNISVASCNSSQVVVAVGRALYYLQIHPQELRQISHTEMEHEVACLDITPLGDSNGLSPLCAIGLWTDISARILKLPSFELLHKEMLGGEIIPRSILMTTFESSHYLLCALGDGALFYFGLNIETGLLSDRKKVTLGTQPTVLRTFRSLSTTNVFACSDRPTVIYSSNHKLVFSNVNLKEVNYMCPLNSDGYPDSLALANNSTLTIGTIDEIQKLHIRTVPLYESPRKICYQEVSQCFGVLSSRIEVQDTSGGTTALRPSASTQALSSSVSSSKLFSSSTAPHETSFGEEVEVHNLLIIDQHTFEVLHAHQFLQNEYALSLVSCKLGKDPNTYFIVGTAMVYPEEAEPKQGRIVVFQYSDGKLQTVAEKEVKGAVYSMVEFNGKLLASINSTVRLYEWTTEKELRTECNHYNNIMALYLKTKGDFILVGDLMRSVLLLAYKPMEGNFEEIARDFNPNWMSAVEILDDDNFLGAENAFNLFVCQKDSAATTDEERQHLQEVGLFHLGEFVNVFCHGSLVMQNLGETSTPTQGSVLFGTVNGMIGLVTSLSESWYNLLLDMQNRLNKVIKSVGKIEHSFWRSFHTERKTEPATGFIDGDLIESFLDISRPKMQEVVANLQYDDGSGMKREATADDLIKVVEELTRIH", "experiment": "GSPT1 degradation by immunoblot in MV4-11 cells", "type": "cell-based", "experimental": "(§1) MV4-11 cells were seeded in 6-well plates (1×10^6 cells per well). After overnight incubation, the cells were treated with indicated concentrations for specific timepoints. […] After blocking the membrane with LI-COR TBS blocking buffer and incubation in primary antibody overnight, the corresponding protein signals were detected using IRDye secondary antibodies and Odyssey Imaging System. Image Studio Lite Ver 5.2 was used for blot quantification. […] IRDye® 800CW Goat anti-Mouse IgG Secondary Antibody and IRDye® 68ORD Goat anti-Rabbit IgG Secondary Antibody were used as secondary antibodies."}, "caspase 3/7": {"system": "caspase 3/7", "experiment": "Caspase 3/7 activity assay", "type": "cell-based, human", "conditions": "MV4-11 cells, Caspase-Glo, 4, 8 and 24 hours, 10 and 100 nM"}, "IKZF1": {"target": "IKZF1 (Homo sapiens (Human), UniProt Q13422+Q96SW2)", "experiment": "IKZF1 degradation by immunoblot in MV4-11 cells", "type": "cell-based", "experimental": "as §1"}, "cells": {"system": "cells", "conditions": "Ref. 13; cited from earlier work"}, "human cancer cell lines": {"system": "human cancer cell lines", "experiment": "Cell proliferation in human cancer cell lines", "type": "cell-based", "conditions": "data not shown"}, "GSPT1 HiBiT tag protein": {"target": "GSPT1 HiBiT tag protein (Homo sapiens (Human), UniProt P15170+Q96SW2)", "sequence (P15170 whole entry)": "as the sequence (P15170 whole entry) above", "sequence (Q96SW2 whole entry)": "as the sequence (Q96SW2 whole entry) above", "sequence (Q16531 whole entry partner)": "as the sequence (Q16531 whole entry partner) above", "experiment": "hGSPT1 HiBiT assay", "type": "cell-based", "conditions": "read-out: GSPT1 HiBit EC50; HEK293 hGSPT1 HiBiT cells, 4 hrs incubation", "experimental": "hGSPT1 HiBiT cell line. HEK293_hGSPT1_HiBiT tagged cells were generated using CRISPR-Cas12a technology. Briefly, ˜400,000 HEK293 cells were transiently co-transfecting with precomplexed ribonuclear proteins (RNPs) consisting of […] of crRNA (IDT), 62 pmol of Cas12a protein (IDT), 3 ug of ssODN donor (IDT; AltR™ modifications), 78 pmol of electroporation enhancer (IDT), and 200 ng of pMaxGFP (Lonza). The transfection was performed via nucleofection (Lonza, 4D-Nucleofector™ X-unit) using solution P3 and program CM-130 in a small (20 ul) cuvette according to the manufacturer's recommended protocol. Five days post-nucleofection, cells were single cell sorted for GFP+(transfected) cells by FACs in 96-well plates and clonally selected. Clones were screened and verified for the desired modification via targeted deep sequencing using gene specific primers with partial Illumina adapter overhangs as previously described.^58 In brief, clonal cell pellets were harvested, lysed and used to generate gene specific amplicons with partial Illumina adapters in PCR #1. Amplicons were indexed in PCR #2 and pooled with other targeted amplicons for other loci to create sequence diversity. Additionally, 10% PhiX Sequencing Control V3 (Illumina) was added to the pooled amplicon library prior to running the sample on an Miseq Sequencer System (Illumina) to generate paired 2×250 bp reads. […] Editing construct sequences and screening primers are listed below in Table 4.\nhGSPT1 HiBiT assay. […] After 4 hrs incubation, the level of GSPT1 HiBiT tag protein was evaluated using Nano-Glo® HiBiT Lytic Detection System (Promega) according to the manufacturer's instruction."}, "6×His-CRBN-DDB1 protein": {"target": "6×His-CRBN-DDB1 protein (Homo sapiens (Human), UniProt Q96SW2)", "sequence (Q96SW2 whole entry)": "as the sequence (Q96SW2 whole entry) above", "sequence (Q16531 whole entry partner)": "as the sequence (Q16531 whole entry partner) above", "experiment": "CRBN fluorescence polarization assay", "type": "binding", "experimental": "6×His-CRBN-DDB1 protein (200 nM) and Cy5-O-Len probe (30 nM) were combined in 20 mM HEPES pH 7, 150 mM NaCl, 0.005% Tween-20 assay buffer. […] The plates were incubated in the dark for 1 hour at room temperature and then read on an Envision plate reader (PerkinElmer, Massachusetts, USA)."}, "MV4-11 cells [3]": {"system": "MV4-11 cells", "experiment": "MV-4-11 cell viability assay", "type": "cell-based, human", "conditions": "72 hours, Cell Titer Glo"}}, "note": "Read-outs that look alike come from different tables or passages of the source."}
{"smiles": "Cc1c(Cl)cccc1S(=O)(=O)Nc1ccc2c(c1)C(=O)N(C1CCC(=O)NC1=O)C2=O", "note": "(centres unmarked) [Compound 5, 3-chloro-N-(2-(2,6-dioxopiperidin-3-yl)-1,3-dioxoisoindolin-5-yl)-2-methylbenzenesulfonamide]", "values": [{"measurement": "Papp", "setting": "MDCKII-MDR1 cells", "result": 3.6, "unit": "×10⁻⁶ cm/s"}, {"measurement": "antiproliferative activity in absence of CRBN", "setting": "[1]", "result": "abolished"}, {"measurement": "antiproliferative effect in presence of lenalidomide", "setting": "MV4-11 cells [2]", "result": "abrogating the antiproliferative effects"}, {"measurement": "Sol.", "setting": "Aqueous solubility assay", "result": 64, "unit": "µM"}, {"measurement": "GSPT1 protein degradation", "setting": "GSPT1; MV4-11 cells, 24 hours, at 100 nM", "result": 90, "unit": "%"}, {"measurement": "caspase activation", "setting": "caspase 3/7", "result": "only observed at the 24 hour time point"}, {"measurement": "IKZF1 degradation at 4 hours", "setting": "IKZF1; MV4-11 cells, 4 hours, any concentration tested", "result": "did not significantly degrade IKZF1"}]}
{"smiles": "O=C1CC[C@H](N2Cc3c(OCc4ccc(CN5CCOCC5)cc4)cccc3C2=O)C(=O)N1", "note": "[CC-220, (S)-3-(4-((4-(morpholinomethyl)benzyl)oxy)-1-oxoisoindolin-2-yl)piperidine-2,6-dione]", "values": [{"measurement": "potency in cells relative to lenalidomide", "setting": "cells", "result": 10, "unit": "fold"}]}
{"smiles": "Cc1ccc(NC(=O)NCc2ccc3c(c2)CN(C2CCC(=O)NC2=O)C3=O)cc1Cl", "note": "(centres unmarked) [CC-885, N-(3-chloro-4-methylphenyl)-N′-[[2-(2,6-dioxo-3-piperidinyl)-2,3-dihydro-1-oxo-1H-isoindol-5-yl]methyl]-urea]", "values": [{"measurement": "antiproliferative effects in cell lines", "setting": "human cancer cell lines", "result": "displayed antiproliferative effects in all four cell lines"}]}
{"smiles": "O=C1CCC(N2C(=O)c3ccc(NS(=O)(=O)c4cccc(OC(F)(F)F)c4)cc3C2=O)C(=O)N1", "note": "(centres unmarked) [Compound 2, N-(2-(2,6-dioxopiperidin-3-yl)-1,3-dioxoisoindolin-5-yl)-3-(trifluoromethoxy)benzenesulfonamide]", "values": [{"measurement": "Papp", "setting": "MDCKII-MDR1 cells", "result": 4, "unit": "×10⁻⁶ cm/s"}, {"measurement": "DC50", "setting": "GSPT1 HiBiT tag protein", "result": "> 10000", "unit": "nM"}, {"measurement": "IC50", "setting": "6×His-CRBN-DDB1 protein; CRBN FP IC50, cereblon binding, class symbols", "result": "< 1000", "unit": "nM"}, {"measurement": "IC50", "setting": "6×His-CRBN-DDB1 protein; CRBN IC50, fluorescence polarization, Cy5-O-Len probe", "result": 72, "unit": "nM"}, {"measurement": "IC50", "setting": "6×His-CRBN-DDB1 protein; fluorescence polarization, Cy5-O-Len probe, read-out: CRBN IC50", "result": 54, "unit": "nM"}, {"measurement": "Sol.", "setting": "Aqueous solubility assay", "result": 64, "unit": "µM"}, {"measurement": "effect on protein levels of GSPT1 by immunoblotting", "setting": "GSPT1; MV4-11 cells (FIG. 6)", "result": "no effects"}, {"measurement": "selectivity window GSPT1 over IKZF1 (DC50)", "setting": "GSPT1; MV4-11 cells, DC50 values at 24 hours", "result": 30, "unit": "fold"}, {"measurement": "effect on protein levels of IKZF1 by immunoblotting", "setting": "IKZF1; MV4-11 cells (FIG. 6)", "result": "no effects"}, {"measurement": "IKZF1 protein abundance", "setting": "IKZF1; MV4-11 cells, treatment over 24 hours", "result": "dose-dependent decrease"}, {"measurement": "MV4-11 EC50", "setting": "MV4-11 cells [3]", "result": "no activity"}]}
